Patent US20150284362A1, “CARBAZOLE-CONTAINING AMIDES, CARBAMATES, AND UREAS AS CRYPTOCHROME MODULATORS” (ReSet Therapeutics, Inc., priority 2014, published 2015)

Tested on: Dbp mRNA in whole blood
Assay: Dbp mRNA in whole blood of db/db mice after three daily doses
Type: in vivo, mouse
Settings: 100 mg/kg PO once daily for three days at ZT0, blood at ZT7.5
Protocol: For whole blood RNA studies, male db/db mice (9 weeks of age, The Jackson Laboratory, Bar Harbor, Me.) were used for the experiment with n=8 mice for each experimental group. […] On the final day at ZT7.5 (2:30 pm), animals were euthanized using CO2 asphyxiation, and the blood collected from the heart via cardiac puncture. The blood was placed in RNALater solution to 1.5 ml total volume. Total RNA was prepared using an Ambion Mouse RiboPure Blood RNA Isolation Kit AM1951 as follows. Samples were centrifuged for 3 minutes, discarding the supernatant. Two ml of lysis solution was added and vortexed, transferred to a 15 ml tube followed by the addition of microliters 3M Sodium Acetate. […]
RediPlate 96 RiboGreen RNA Quantification Kit (Invitrogen) RediPlate standard curve was prepared by transferring 20 μl reconstituted RNA standard to a RediPlate well reconstituted in 180 μl RediPlate TE buffer. […] After transferring 5 μl to RediPlate well reconstituted in 195 μl TE buffer and incubating 10 min. at RT, Fluorescence Intensity of wells with standards and samples were read in a Tecan M200 with Excitation set at 480 nm and Emission set at 520 nm with the gain set to ˜70%. […] A standard curve was generated in GraphPad Prism and sample readings (unknowns) are interpolated via linear regression analysis, and the RNA sample concentrations were calculated. […]

## O=C1NCCN1CC(O)Cn1c2ccc(F)cc2c2cc(F)ccc21 (stereo not shown) [Compound 72, 1-(3-(3,6-difluoro-9H-carbazol-9-yl)-2-hydroxypropyl)imidazolidin-2-one]
  Dbp gene expression in whole blood: statistically significant suppression
